Earlier results on two compounds are cited in patent publication US11878081B1, “Pharmaceutical formulations of tafamidis” (TaP Pharmaceuticals, AG, priority 2022, dated 2024).

For data set [1] the following is noted: as stated by the '116 publication.
For data set [2] the following is noted: capsule formulation of Table B/C, 61 mg, pH 6.8 PBS 900 ml, paddle 50 RPM, 37° C.
The conditions of data set [3]: 20 mg in 3.0 mL, equilibration 1 h, UHPLC.

Each structure is given as a SMILES string. Like-named read-outs stand apart in the source and are kept apart here.

For `O=C(O)c1ccc2nc(-c3cc(Cl)cc(Cl)c3)oc2c1` [form 4, 2-(3,5-dichlorophenyl)-1,3-benzoxazole-6-carboxylic acid], in data set [1], the stability result is recorded as “unstable”.

In the case of `O=C(O)c1ccc2nc(-c3cc(Cl)cc(Cl)c3)oc2c1` [‘441 patent's tafamidis crystal form 1, 2-(3,5-dichlorophenyl)-1,3-benzoxazole-6-carboxylic acid], the Cumulative drug release is reported as 0.0% in data set [2] (0 min); 14.0% in data set [2] (5 min); 27.3% in data set [2] (10 min); 29.1% in data set [2] (15 min); 28.1% in data set [2] (20 min); 27.6% in data set [2] (30 min). Further, the values for the Cumulative drug release in data set [2] (45 min) and in data set [2] (60 min) were 26.8% and 21.8%, respectively. In addition, in data set [1], the solubility result is reported as “low solubility”. Further, the stability entry in data set [1] (listed as tafamidis form 1) is “more stable than forms 2, 4, and 6”. Also, the “concentration of tafamidis in saturated solution (solubility)” value was 9.0 µg/mL in data set [3] (FaSSIF), 0.6 µg/mL in data set [3] (FeSSIF) and 1.5 µg/mL in data set [3] (SGF).
